Test results taken from ChEMBL document CHEMBL1141040, “Isolation, structure elucidation, preparation, and biological properties of neolambertellin” (Bioorg Med Chem Lett, 2005).
Values after ≈ are worked out from the molar mass of the structure shown.

Test system: Bipolaris oryzae
Assay: Inhibitory concentration against hyphal germination of Cochlibolus miyabeanus
Assay type: functional, organism-based

Q: Which IC50 does the source give for `Cc1cc2cc(O)c3c(O)cccc3c2oc1=O` here?
A: The IC50 was 100 µg/mL (≈ 413 µM).
